# Laboratory results taken from patent US8916702B2 (priority 2012, dated 2014).
# Tested on: HCV pseudoparticles (genotype 1a HCV E1 and E2 envelope, H77C isolate)
# Assay: microbe, parasite or virus in culture
# Format: cell-based
# Conditions: Hepatitis C virus, Huh-7, 48 h, HCV pseudoparticle infection of Huh7 cells, luciferase 2 days after infection; average of duplicates
row,SMILES,EC50 [nM]
1,COC(=O)[C@H](CCNC(=O)C(=O)NC(C)C1CC1)NC(=O)c1ccc(Nc2nc(NC3(c4ccc(Cl)cc4)CC3)nc(OCC(F)(F)F)n2)cc1 (stereo partly drawn) [Compound 1417],0.16
2,CC(C)(Cc1ccc(F)cc1)NC(=O)C(=O)NCC[C@H](NC(=O)c1ccc(Nc2nc(NC3(c4ccc(Cl)cc4)CC3)nc(OCC(F)(F)F)n2)cc1)C(=O)O [Compound 1340],0.1
3,O=C(NCc1cc(F)cc(F)c1)C(=O)NC[C@H](NC(=O)c1ccc(Nc2nc(NC3(c4ccc(Cl)cc4)CC3)nc(OCC(F)(F)F)n2)cc1)C(=O)O [Compound 1173],0.74
4,COC(=O)[C@H](CNC(=O)C(=O)NC1CCCCC1C)NC(=O)c1ccc(Nc2nc(NC3(c4ccc(Cl)cc4)CC3)nc(OCC(F)(F)F)n2)cc1 (stereo partly drawn) [Compound 1061],1.58

# Same assay, conditions: Hepatitis C virus, Huh-7, 48 h, HCV pseudoparticles (genotype 1a, H77C) in Huh7 cells; average of duplicate; luciferase 2 days after infection
row,SMILES,EC50 [nM]
1,Cc1cc(C)nc(N(C)c2ccc(NC(=O)C(=O)NCC[C@H](NC(=O)c3ccc(Nc4nc(NC5(c6ccc(Cl)cc6)CC5)nc(OCC(F)(F)F)n4)cc3)C(=O)O)cc2)n1 [Compound 3234],0.24
2,COC(=O)/C(CCNC(=O)C(=O)Nc1cncc(-c2nncn2C)c1)=N\C(=O)c1ccc(Nc2nc(NC3(c4ccc(Cl)cc4)CC3)nc(OCC(F)(F)F)n2)cc1 [Compound 3597],3.05
3,COC(=O)/C(CCNC(=O)C(=O)Nc1ccc(C)nc1)=N\C(=O)c1ccc(Nc2nc(NC3(c4ccc(Cl)cc4)CC3)nc(OCC(F)(F)F)n2)cc1 [Compound 3590],0.16

# Same assay, conditions: Hepatitis C virus, Huh-7, 48 h, read-out: Activity (EC50 class), HCV pseudoparticle infection of Huh7 cells, luciferase 2 days after infection; EC50 expressed as class A/B
row,SMILES,EC50 [nM]
1,COC(=O)[C@H](CCNC(=O)C(=O)NCC1(C(=O)OC)CC1)NC(=O)c1ccc(Nc2nc(NC3(c4ccc(Cl)cc4)CC3)nc(OCC(F)(F)F)n2)cc1 [Compound 1375],0.01 to 10
2,COC(=O)[C@H](CNC(=O)C(=O)Nc1cn[nH]c1)NC(=O)c1ccc(Nc2nc(NC3(c4ccc(Cl)cc4)CC3)nc(OCC(F)(F)F)n2)cc1 [Compound 1246],0.01 to 10
3,COC(=O)[C@H](CCNC(=O)C(=O)Nc1cccc(Cl)c1)NC(=O)c1ccc(Nc2nc(NC3(c4ccc(Cl)cc4)CC3)nc(OCC(F)(F)F)n2)cc1 [Compound 1499],0.01 to 10
4,O=C(NCC[C@H](NC(=O)c1ccc(Nc2nc(NC3(c4ccc(Cl)cc4)CC3)nc(OCC(F)(F)F)n2)cc1)C(=O)O)C(=O)NC1Cc2ccccc2C1 [Compound 1335],0.01 to 10
5,COC(=O)[C@H](CCNC(=O)C(=O)NC(C)C1CC1)NC(=O)c1ccc(Nc2nc(NC3(c4ccc(Cl)cc4)CC3)nc(OCC(F)(F)F)n2)cc1 (stereo partly drawn) [Compound 1417],0.01 to 10
6,COC(=O)[C@H](CCNC(=O)C(=O)NCCc1ccccc1F)NC(=O)c1ccc(Nc2nc(NC3(c4ccc(Cl)cc4)CC3)nc(OCC(F)(F)F)n2)cc1 [Compound 1313],0.01 to 10
7,COC(=O)[C@H](CNC(=O)C(=O)NCC1CCCCC1)NC(=O)c1ccc(Nc2nc(NC3(c4ccc(Cl)cc4)CC3)nc(OCC(F)(F)F)n2)cc1 [Compound 1149],0.01 to 10
8,COC(=O)[C@H](CNC(=O)C(=O)NC(C)(C)Cc1ccc(F)cc1)NC(=O)c1ccc(Nc2nc(NC3(c4ccc(Cl)cc4)CC3)nc(OCC(F)(F)F)n2)cc1 [Compound 1296],0.01 to 10
9,COC(=O)[C@H](CCNC(=O)C(=O)NC(COCc1ccccc1)C1CC1)NC(=O)c1ccc(Nc2nc(NC3(c4ccc(Cl)cc4)CC3)nc(OCC(F)(F)F)n2)cc1 (stereo partly drawn) [Compound 1370],0.01 to 10
10,COC(=O)[C@H](CCNC(=O)C(=O)Nc1cc(F)ccc1F)NC(=O)c1ccc(Nc2nc(NC3(c4ccc(Cl)cc4)CC3)nc(OCC(F)(F)F)n2)cc1 [Compound 1503],0.01 to 10
11,O=C(NC[C@H](NC(=O)c1ccc(Nc2nc(NC3(c4ccc(Cl)cc4)CC3)nc(OCC(F)(F)F)n2)cc1)C(=O)O)C(=O)N[C@@H]1C[C@@H]2CC[C@H]1C2 [Compound 1080],0.01 to 10
12,CC(C)(Cc1ccc(F)cc1)NC(=O)C(=O)NCC[C@H](NC(=O)c1ccc(Nc2nc(NC3(c4ccc(Cl)cc4)CC3)nc(OCC(F)(F)F)n2)cc1)C(=O)O [Compound 1340],0.01 to 10
13,CCC(CC)NC(=O)C(=O)NC[C@@H](NC(=O)c1ccc(Nc2nc(NC3(c4ccc(Cl)cc4)CC3)nc(OCC(F)(F)F)n2)cc1)C(=O)OC [Compound 1063],0.01 to 10
14,CCC(CC)NC(=O)C(=O)NCC[C@H](NC(=O)c1ccc(Nc2nc(NC3(c4ccc(Cl)cc4)CC3)nc(OCC(F)(F)F)n2)cc1)C(=O)O [Compound 1126],0.01 to 10
15,O=C(NCc1cc(F)cc(F)c1)C(=O)NC[C@H](NC(=O)c1ccc(Nc2nc(NC3(c4ccc(Cl)cc4)CC3)nc(OCC(F)(F)F)n2)cc1)C(=O)O [Compound 1173],0.01 to 10
16,CCC1(CC)CC1CNC(=O)C(=O)NC[C@H](NC(=O)c1ccc(Nc2nc(NC3(c4ccc(Cl)cc4)CC3)nc(OCC(F)(F)F)n2)cc1)C(=O)O (stereo partly drawn) [Compound 1471],0.01 to 10
17,COC(=O)[C@H](CNC(=O)C(=O)NC1CCCCC1C)NC(=O)c1ccc(Nc2nc(NC3(c4ccc(Cl)cc4)CC3)nc(OCC(F)(F)F)n2)cc1 (stereo partly drawn) [Compound 1061],0.01 to 10
18,COC(=O)[C@H](CCNC(=O)C(=O)NC1CCCCC1)NC(=O)c1ccc(Nc2nc(NC3(c4ccc(Cl)cc4)CC3)nc(OCC(F)(F)F)n2)cc1 [Compound 1140],0.01 to 10

# Same assay, conditions: Hepatitis C virus, Huh-7, 48 h, read-out: Activity (EC50 class), HCV pseudoparticles, Huh7 cells, luciferase 2 days after infection; average of duplicates
row,SMILES,EC50 [nM]
1,Cc1ccc(NC(=O)C(=O)NCC(C)(C)CNC(=O)c2ccc(Nc3nc(NC4(c5ccc(Cl)cc5)CC4)nc(OCc4cccc(Cl)c4)n3)cc2)cc1 [Compound 3844],0.01 to 10
2,Cc1nc(-c2cccc(NC(=O)C(=O)NC[C@H](NC(=O)c3ccc(Nc4nc(NC5(c6ccc(Cl)cc6)CC5)nc(OCC(F)(F)F)n4)cc3)C(=O)O)c2)cs1 [Compound 3773],0.01 to 10
3,O=C(NC[C@H](NC(=O)c1ccc(Nc2nc(NC3(c4ccc(Cl)cc4)CC3)nc(OCC(F)(F)F)n2)cc1)C(=O)Cl)C(=O)Nc1cccc(-n2cnnc2)c1 [Compound 3784],0.01 to 10
4,O=C(NCC[C@H](NC(=O)c1ccc(Nc2nc(NC3(c4ccc(Cl)cc4)CC3)nc(OCC(F)(F)F)n2)cc1)C(=O)O)C(=O)Nc1cccc(-n2cnnc2)c1 [Compound 3653],0.01 to 10
5,O=C(NC[C@H](NC(=O)c1ccc(Nc2nc(NC3(c4ccc(Cl)cc4)CC3)nc(OCC(F)(F)F)n2)cc1)C(=O)Cl)C(=O)Nc1cccc(C(=O)Nc2ccccc2)c1 [Compound 3747],0.01 to 10

# Same assay, conditions: Hepatitis C virus, Huh-7, read-out: Activity (EC50 class), HCV pseudoparticles (genotype 1a, H77C) in Huh7 cells; EC50 expressed as class A/B
row,SMILES,EC50 [nM]
1,COC(=O)[C@@H](CCNC(=O)C(=O)Nc1cccc(C(=O)c2ccccc2)c1)NC(=O)c1ccc(Nc2nc(NC3(c4ccc(Cl)cc4)CC3)nc(OCC(F)(F)F)n2)cc1 [Compound 3576],0.01 to 10
2,O=C(NCCC(NC(=O)c1ccc(Nc2nc(NC3(c4ccc(Cl)cc4)CC3)nc(OCC(F)(F)F)n2)cc1)C(=O)O)C(=O)Nc1ccc(-n2ccnc2)cc1 (stereo not drawn) [Compound 3521],0.01 to 10
3,Cc1cc(C)nc(N(C)c2ccc(NC(=O)C(=O)NCC[C@H](NC(=O)c3ccc(Nc4nc(NC5(c6ccc(Cl)cc6)CC5)nc(OCC(F)(F)F)n4)cc3)C(=O)O)cc2)n1 [Compound 3234],0.01 to 10
4,COC(=O)[C@H](CCNC(=O)C(=O)Nc1ccc(-c2csc(C)n2)cc1)NC(=O)c1ccc(Nc2nc(NC3(c4ccc(Cl)cc4)CC3)nc(OCC(F)(F)F)n2)cc1 [Compound 3307],0.01 to 10
5,COC(=O)[C@H](CNC(=O)C(=O)Nc1ccc(Cn2ccnc2)cc1)NC(=O)c1ccc(Nc2nc(NC3(c4ccc(Cl)cc4)CC3)nc(OCC(F)(F)F)n2)cc1 [Compound 3202],0.01 to 10
6,COC(=O)[C@H](CCNC(=O)C(=O)Nc1ccc(-n2ccnc2)cc1)NC(=O)c1ccc(Nc2nc(NC3(c4ccc(Cl)cc4)CC3)nc(OCC(F)(F)F)n2)cc1 [Compound 3300],10 to 1000
7,COCc1ccc(NC(=O)C(=O)NC[C@H](NC(=O)c2ccc(Nc3nc(NC4(c5ccc(Cl)cc5)CC4)nc(OCC(F)(F)F)n3)cc2)C(=O)OC)cc1 [Compound 3205],0.01 to 10
8,CC(C)(CNC(=O)C(=O)Nc1ccc(C#N)c(Cl)c1)CNC(=O)c1ccc(Nc2nc(NC3(c4ccc(Cl)cc4)CC3)nc(OCC(F)(F)F)n2)cc1 [Compound 3374],0.01 to 10
9,COc1ccc(-c2ccccc2NC(=O)C(=O)NCC(C)(C)CNC(=O)c2ccc(Nc3nc(NC4(c5ccc(Cl)cc5)CC4)nc(OCC(F)(F)F)n3)cc2)cc1 [Compound 3065],0.01 to 10
10,COC(=O)/C(CCNC(=O)C(=O)Nc1cccc(S(=O)(=O)C(F)(F)F)c1)=N\C(=O)c1ccc(Nc2nc(NC3(c4ccc(Cl)cc4)CC3)nc(OCC(F)(F)F)n2)cc1 [Compound 3589],0.01 to 10
11,O=C(NC[C@H](NC(=O)c1ccc(Nc2nc(NC3(c4ccc(Cl)cc4)CC3)nc(OCC(F)(F)F)n2)cc1)C(=O)O)C(=O)Nc1ccc(-c2cc[nH]n2)cc1 [Compound 3278],0.01 to 10
12,COC(=O)[C@H](CCNC(=O)C(=O)Nc1ccc(OC(F)(F)F)cc1)NC(=O)c1ccc(Nc2nc(NC3(c4ccc(Cl)cc4)CC3)nc(OCC(F)(F)F)n2)cc1 [Compound 3331],0.01 to 10
13,COc1cc(C)ccc1NC(=O)C(=O)NCC(C)(C)CNC(=O)c1ccc(Nc2nc(NC3(c4ccc(Cl)cc4)CC3)nc(OCC(F)(F)F)n2)cc1 [Compound 3070],0.01 to 10
14,CC(C)(CNC(=O)C(=O)Nc1ccc2[nH]nnc2c1)CNC(=O)c1ccc(Nc2nc(NC3(c4ccc(Cl)cc4)CC3)nc(OCC(F)(F)F)n2)cc1 [Compound 3352],0.01 to 10
15,COC(=O)[C@H](CCNC(=O)C(=O)Nc1ccc(CCO)cc1)NC(=O)c1ccc(Nc2nc(NC3(c4ccc(Cl)cc4)CC3)nc(OCC(F)(F)F)n2)cc1 [Compound 3218],0.01 to 10
16,CC(C)(CNC(=O)C(=O)NCc1ccccc1F)CNC(=O)c1ccc(Nc2nc(NC3(c4ccc(Cl)cc4)CC3)nc(OCC(F)(F)F)n2)cc1 [Compound 3005],0.01 to 10
17,NC(=O)C(=O)N[C@H](CCNC(=O)c1ccc(Nc2nc(NC3(c4ccc(Cl)cc4)CC3)nc(OCC(F)(F)F)n2)cc1)C(=O)O [Compound 3491],10 to 1000
18,Cc1cc(Cl)ccc1NC(=O)C(=O)NCC(C)(C)CNC(=O)c1ccc(Nc2nc(NC3(c4ccc(Cl)cc4)CC3)nc(OCC(F)(F)F)n2)cc1 [Compound 3057],0.01 to 10
19,O=C(Nc1ccccc1)C(=O)N[C@H](CCNC(=O)c1ccc(Nc2nc(NC3(c4ccc(Cl)cc4)CC3)nc(OCC(F)(F)F)n2)cc1)C(=O)O [Compound 3494],0.01 to 10
20,COC(=O)/C(CCNC(=O)C(=O)Nc1cncc(-c2nncn2C)c1)=N\C(=O)c1ccc(Nc2nc(NC3(c4ccc(Cl)cc4)CC3)nc(OCC(F)(F)F)n2)cc1 [Compound 3597],0.01 to 10
21,COC(=O)/C(CCNC(=O)C(=O)Nc1ccc(C)nc1)=N\C(=O)c1ccc(Nc2nc(NC3(c4ccc(Cl)cc4)CC3)nc(OCC(F)(F)F)n2)cc1 [Compound 3590],0.01 to 10
22,COc1cccc(-c2ccc(NC(=O)C(=O)NCC(C)(C)CNC(=O)c3ccc(Nc4nc(NC5(c6ccc(Cl)cc6)CC5)nc(OCC(F)(F)F)n4)cc3F)cc2)c1 [Compound 3563],0.01 to 10
23,COC(=O)[C@H](CCNC(=O)C(=O)Nc1ccc(-n2cncn2)cc1)NC(=O)c1ccc(Nc2nc(NC3(c4ccc(Cl)cc4)CC3)nc(OCC(F)(F)F)n2)cc1 [Compound 3130],0.01 to 10
24,CCC(CC)CCNC(=O)c1ccc(NC(=O)C(=O)NC[C@H](NC(=O)c2ccc(Nc3nc(NC4(c5ccc(Cl)cc5)CC4)nc(OCC(F)(F)F)n3)cc2)C(=O)OC)cc1 [Compound 3089],0.01 to 10
